Patent US20110178104A1, “Anti-Heparin Compounds” (POLYMEDIX INC., priority 2010, published 2011)

Assays:
enoxaparin = assay: FXa amidolytic assay (Example 10), enoxaparin; conditions: read-out: Enox FXa EC50; enoxaparin 0.1 ug/ml; human antithrombin, bovine Factor Xa
Unfractionated heparin = assay: aPTT clotting assay, UFH 0.4 U/mL in plasma (Example 10); assay type: biochemical; conditions: unfractionated heparin 0.4 U/mL in plasma; aPTT clotting
Protocol: aPTT clotting Assay: Unfractionated heparin was mixed with plasma at a final concentration of 0.4 U/mL (or concentration which increases aPTT time to between 120 and 300 seconds). […] The ACL Elite Hemostasis analyzer (Beckman Coulter™) was used to add aPTT reagent (HemosIL SynthASil) to supplemented plasma. Clotting was initiated by addition of CaCl2 and time to clot was recorded.

fondaparinux = assay: FXa amidolytic assay (Example 10), fondaparinux; conditions: read-out: Fondap FXa EC50; fondaparinux 0.02 μg/mL; human antithrombin, bovine Factor Xa
tinzaparin = assay: FXa amidolytic assay (Example 10), tinzaparin; conditions: read-out: Tinzap FXa EC50; tinzaparin 0.1 ug/ml; human antithrombin, bovine Factor Xa

| EC50 (enoxaparin) | EC50 (Unfractionated heparin) | EC50 (fondaparinux) | EC50 (tinzaparin) | Structure (SMILES) |
| --- | --- | --- | --- | --- |
| 202 nM |  |  |  | COc1ccc(NC(=O)[C@H](CCCCN)NC(=O)c2cc(NC(=O)[C@H](CCCCN)NC(=O)c3cc(NC(=O)[C@H](CCCNC(=N)N)NC(=O)c4cc(NC(=O)[C@@H](N)CCCCN)ccc4OC)ccc3OC)ccc2OC)cc1C(N)=O [Compound 205] |
| 283 nM | 2990 nM |  |  | COc1ccc(NC(=O)[C@H](CCCNC(=N)N)NC(=O)c2cc(NC(=O)[C@H](CCCCN)NC(=O)c3cc(NC(=O)[C@H](CCCCN)NC(=O)c4cc(NC(=O)[C@@H](N)CCCCN)ccc4OC)ccc3OC)ccc2OC)cc1C(N)=O [Compound 203] |
| 78 nM | 893 nM | 354 nM |  | COc1ccc(NC(=O)[C@H](CCCCN)NC(=O)c2cc(NC(=O)[C@H](CCCCN)NC(=O)c3cc(NC(=O)[C@@H](N)CCCCN)ccc3OC)ccc2OC)cc1C(=O)N[C@@H](CCCCN)C(=O)Nc1cccc(C(N)=O)c1 [Compound 213] |
| 239 nM | 3020 nM |  |  | COc1ccc(NC(=O)[C@H](CCCCN)NC(=O)c2cc(NC(=O)[C@H](CCCNC(=N)N)NC(=O)c3cc(NC(=O)[C@H](CCCCN)NC(=O)c4cc(NC(=O)[C@@H](N)CCCCN)ccc4OC)ccc3OC)ccc2OC)cc1C(N)=O [Compound 204] |
| 73 nM | 2850 nM | 288 nM |  | COc1ccc(NC(=O)[C@H](CCCCN)NC(=O)c2cc(NC(=O)[C@H](CCCCN)NC(=O)c3cccc(NC(=O)[C@H](CCCCN)NC(=O)c4cc(NC(=O)[C@@H](N)CCCCN)ccc4OC)c3)ccc2OC)cc1C(N)=O [Compound 215] |
| 198 nM |  | 1580 nM | 138 nM | COC(=O)CCCC(=O)N[C@@H](CCCCN)C(=O)Nc1ccc(OC)c(C(=O)N[C@@H](CCCCN)C(=O)Nc2ccc(OC)c(C(=O)N[C@@H](CCCCN)C(=O)Nc3ccc(OC)c(C(=O)N[C@@H](CCCCN)C(=O)Nc4ccc(OC)c(C(N)=O)c4)c3)c2)c1 [Compound 341] |
| 148 nM | 1960 nM |  |  | COc1ccc(NC(=O)[C@H](CCCCN)NC(=O)c2cc(NC(=O)[C@H](CCCCN)NC(=O)c3cc(NC(=O)[C@H](CCCCN)NC(=O)c4cc(NC(=O)[C@@H](N)CCCNC(=N)N)ccc4OC)ccc3OC)ccc2OC)cc1C(N)=O [Compound 206] |
| > 10000 nM |  | > 10000 nM |  | COc1ccc(NC(=O)[C@@H](CCCCN)NC(=O)c2c(OC)ccc(NC(=O)[C@@H](CCCCN)NC(=O)c3c(OC)ccc(NC(=O)[C@@H](CCCCN)NC(=O)c4c(OC)ccc(NC(=O)[C@H](N)CCCCN)c4OC)c3OC)c2OC)c(OC)c1C(N)=O [Compound 293] |
| 74 nM | 1120 nM | 252 nM |  | CCOc1ccc(NC(=O)[C@@H](CCCNC(=N)N)NC(=O)c2cc(NC(=O)[C@@H](CCCNC(=N)N)NC(=O)c3cc(NC(=O)[C@@H](CCCNC(=N)N)NC(=O)c4cc(NC(=O)[C@H](N)CCCNC(=N)N)ccc4OC)ccc3OC)ccc2OC)cc1C(N)=O [Compound 217] |
| 125 nM | 5450 nM |  |  | COc1cc(OC)c(C(=O)N[C@H]2CC[C@H](NC(=O)c3cc(C(=O)N[C@H]4CC[C@H](NC(=O)c5cc(C(=O)NCCN(C)C)c(OC)cc5OC)CC4)c(OCCCCCNC(=N)N)cc3OCCCCCNC(=N)N)CC2)cc1C(=O)NCCN(C)C [Compound 220] |
| 87 nM | 1910 nM | 432 nM |  | COc1ccc(NC(=O)[C@H](CCCCN)NC(=O)c2cccc(NC(=O)[C@H](CCCCN)NC(=O)c3cc(NC(=O)[C@H](CCCCN)NC(=O)c4cc(NC(=O)[C@@H](N)CCCCN)ccc4OC)ccc3OC)c2)cc1C(N)=O [Compound 214] |
| 241 nM |  | 2750 nM | 176 nM | COC(=O)CCC(=O)N[C@@H](CCCCN)C(=O)Nc1ccc(OC)c(C(=O)N[C@@H](CCCCN)C(=O)Nc2ccc(OC)c(C(=O)N[C@@H](CCCCN)C(=O)Nc3ccc(OC)c(C(=O)N[C@@H](CCCCN)C(=O)Nc4ccc(OC)c(C(N)=O)c4)c3)c2)c1 [Compound 338] |
| 974 nM | 6000 nM |  |  | COc1ccc(NC(=O)[C@H](CCCCN)NC(=O)c2cc(NC(=O)[C@H](C)NC(=O)c3cc(NC(=O)[C@H](CCCCN)NC(=O)c4cc(NC(=O)[C@@H](N)CCCCN)ccc4OC)ccc3OC)ccc2OC)cc1C(N)=O [Compound 201] |
| 74 nM | 853 nM | 176 nM |  | CCOc1ccc(NC(=O)[C@@H](CCCNC(=N)N)NC(=O)c2cc(NC(=O)[C@H](N)CCCNC(=N)N)ccc2OC)cc1C(=O)N[C@H](CCCNC(=N)N)C(=O)Nc1ccc(OC)c(C(=O)N[C@H](CCCNC(=N)N)C(=O)Nc2ccc(OC)c(C(N)=O)c2)c1 [Compound 218] |
|  | > 10000 nM |  |  | CN(C)CCNC(=O)c1cc(C(=O)NC2CCC(NC(=O)c3cc(C(=O)NCCN(C)C)c(OCCCCCN)cc3OCCCCCN)CC2)c(OCCCCCN)cc1OCCCCCN (stereo not shown) [Compound 227] |
| 82 nM | 2550 nM | 1400 nM |  | COc1ccc(C(N)=O)cc1NC(=O)[C@@H](CCCNC(=N)N)NC(=O)c1cc(NC(=O)[C@@H](CCCNC(=N)N)NC(=O)c2cc(NC(=O)[C@@H](CCCNC(=N)N)NC(=O)c3cc(NC(=O)[C@H](N)CCCNC(=N)N)ccc3OC)ccc2OC)ccc1OC [Compound 210] |
| 137 nM | 5900 nM | 2870 nM |  | COc1ccc(NC(=O)[C@@H](CCCNC(=N)N)NC(=O)c2cc(NC(=O)[C@@H](CCCNC(=N)N)NC(=O)c3cccc(NC(=O)[C@@H](CCCNC(=N)N)NC(=O)c4cc(NC(=O)[C@H](N)CCCNC(=N)N)ccc4OC)n3)ccc2OC)cc1C(N)=O [Compound 211] |
| 398 nM | 4550 nM |  |  | COc1ccc(NC(=O)[C@H](CCCCN)NC(=O)c2cc(NC(=O)[C@H](CCCCN)NC(=O)c3cc(NC(=O)[C@H](C)NC(=O)c4cc(NC(=O)[C@@H](N)CCCCN)ccc4OC)ccc3OC)ccc2OC)cc1C(N)=O [Compound 202] |
| 47 nM | 2480 nM | 1180 nM |  | COc1ccc(NC(=O)[C@@H](CCCNC(=N)N)NC(=O)CCCCNC(=N)N)cc1C(=O)N[C@H](CCCNC(=N)N)C(=O)Nc1ccc(OC)c(C(=O)N[C@H](CCCNC(=N)N)C(=O)Nc2ccc(OC)c(C(=O)N[C@H](CCCNC(=N)N)C(=O)Nc3ccc(OCCNC(=N)N)c(C(N)=O)c3)c2)c1 [Compound 291] |
| 235 nM |  | 932 nM | 201 nM | COc1ccc(NC(=O)[C@H](CCCCN)NC(=O)c2cc(NC(=O)[C@H](CCCCN)NC(=O)c3cc(NC(=O)[C@H](CCCCN)NC(=O)c4cc(NC(=O)[C@H](CCCCN)NC(=O)c5ccccc5C(=O)O)ccc4OC)ccc3OC)ccc2OC)cc1C(N)=O [Compound 343] |
| 39 nM |  |  |  | COc1ccc(NC(=O)[C@@H](CCCNC(=N)N)NC(=O)c2cc(NC(=O)[C@@H](CCCNC(=N)N)NC(=O)c3cc(NC(=O)[C@@H](CCCNC(=N)N)NC(=O)c4cc(NC(=O)[C@H](N)CCCNC(N)=O)ccc4OC)ccc3OC)ccc2OC)cc1C(N)=O [Compound 207] |
| 450 nM |  | 4790 nM |  | COc1ccc(NC(=O)[C@H](CCCCN)NC(=O)c2cc(NC(=O)[C@H](CCCCN)NC(=O)c3cc(NC(=O)[C@H](CCCCN)NC(=O)c4cc(NC(=O)[C@H](CCCCN)NC(=N)N)ccc4OC)ccc3OC)ccc2OC)cc1C(N)=O [Compound 292] |
| 73 nM | 883 nM | 259 nM |  | COc1ccc(NC(=O)[C@@H](CCCNC(=N)N)NC(=O)c2cc(NC(=O)[C@@H](CCCNC(=N)N)NC(=O)c3cc(NC(=O)[C@@H](CCCNC(=N)N)NC(=O)c4cccc(NC(=O)[C@H](N)CCCNC(=N)N)c4)ccc3OC)ccc2OC)cc1C(N)=O [Compound 212] |
